Assay results: ChEMBL document CHEMBL4673280, “Discovery and SAR studies of 2-alkyl-3-phenyl-2,4,5,6,7,8-hexahydropyrazolo[3,4-d]azepines as 5-HT inhibitors leading to the identification of a clinical candidate” (Bioorg Med Chem Lett, 2021)

Assays:
[1] = target: 5-hydroxytryptamine receptor 2A (Homo sapiens, UniProt P28223); experiment: Displacement of [3H]-ketanserin from human 5-HT2A receptor by competitive radioligand binding assay
[2] = target: 5-hydroxytryptamine receptor 2B (Homo sapiens, UniProt P41595); experiment: Displacement of [3H]-ketanserin from human 5-HT2B receptor by competitive radioligand binding assay
[3] = target: T1, Adrenergic receptor alpha-1 (Rattus norvegicus, UniProt P15823+P23944+P43140); experiment: Displacement of […] from alpha1 adrenergic receptor in rat cortex membrane incubated for 60 mins by competitive radioligand binding assay; assay type: cell membranes
T1 sequence (P15823 whole entry): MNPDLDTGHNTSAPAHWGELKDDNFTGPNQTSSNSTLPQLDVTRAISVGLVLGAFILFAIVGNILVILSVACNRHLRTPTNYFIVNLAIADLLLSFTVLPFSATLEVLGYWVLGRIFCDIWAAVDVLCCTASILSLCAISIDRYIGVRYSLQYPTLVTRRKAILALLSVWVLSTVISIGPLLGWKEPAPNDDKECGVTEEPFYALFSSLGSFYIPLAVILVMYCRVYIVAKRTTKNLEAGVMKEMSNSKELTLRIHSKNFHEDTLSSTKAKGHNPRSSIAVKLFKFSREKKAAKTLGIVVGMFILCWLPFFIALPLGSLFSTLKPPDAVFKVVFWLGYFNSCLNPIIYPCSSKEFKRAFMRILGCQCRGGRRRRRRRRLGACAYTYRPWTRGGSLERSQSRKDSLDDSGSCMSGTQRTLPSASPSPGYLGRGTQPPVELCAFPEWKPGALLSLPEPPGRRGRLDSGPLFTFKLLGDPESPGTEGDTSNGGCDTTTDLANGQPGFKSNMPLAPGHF
T1 sequence (P23944 whole entry): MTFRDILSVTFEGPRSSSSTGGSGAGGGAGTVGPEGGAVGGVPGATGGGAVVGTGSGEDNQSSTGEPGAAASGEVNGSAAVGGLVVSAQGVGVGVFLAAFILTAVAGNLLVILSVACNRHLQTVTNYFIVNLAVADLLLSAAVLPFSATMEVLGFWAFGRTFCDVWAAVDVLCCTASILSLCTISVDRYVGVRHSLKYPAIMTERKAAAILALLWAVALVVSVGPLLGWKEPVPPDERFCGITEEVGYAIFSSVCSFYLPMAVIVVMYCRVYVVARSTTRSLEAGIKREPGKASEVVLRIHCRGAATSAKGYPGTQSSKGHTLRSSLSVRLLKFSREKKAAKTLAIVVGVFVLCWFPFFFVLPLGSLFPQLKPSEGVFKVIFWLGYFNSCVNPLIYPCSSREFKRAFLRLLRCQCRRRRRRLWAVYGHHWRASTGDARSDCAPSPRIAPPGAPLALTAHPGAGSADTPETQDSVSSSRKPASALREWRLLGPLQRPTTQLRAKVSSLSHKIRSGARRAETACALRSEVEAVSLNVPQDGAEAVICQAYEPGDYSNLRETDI
T1 sequence (P43140 whole entry): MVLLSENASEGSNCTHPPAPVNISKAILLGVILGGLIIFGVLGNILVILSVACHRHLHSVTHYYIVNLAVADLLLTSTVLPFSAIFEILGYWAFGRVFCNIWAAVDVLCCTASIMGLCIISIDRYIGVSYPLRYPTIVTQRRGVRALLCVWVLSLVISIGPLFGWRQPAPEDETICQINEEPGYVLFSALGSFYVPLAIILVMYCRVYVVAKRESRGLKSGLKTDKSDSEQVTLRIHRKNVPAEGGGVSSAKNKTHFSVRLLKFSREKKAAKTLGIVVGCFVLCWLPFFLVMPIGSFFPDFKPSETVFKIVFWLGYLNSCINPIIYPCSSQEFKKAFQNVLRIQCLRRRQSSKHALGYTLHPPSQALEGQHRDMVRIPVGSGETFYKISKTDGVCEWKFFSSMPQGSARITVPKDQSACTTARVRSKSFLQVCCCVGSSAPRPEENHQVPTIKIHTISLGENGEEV

[4] = target: T2, 5-hydroxytryptamine receptor 2C (Homo sapiens, UniProt P28335); experiment: Displacement of [3H]-ketanserin from human 5-HT2C receptor by competitive radioligand binding assay
T2 sequence (P28335 whole entry): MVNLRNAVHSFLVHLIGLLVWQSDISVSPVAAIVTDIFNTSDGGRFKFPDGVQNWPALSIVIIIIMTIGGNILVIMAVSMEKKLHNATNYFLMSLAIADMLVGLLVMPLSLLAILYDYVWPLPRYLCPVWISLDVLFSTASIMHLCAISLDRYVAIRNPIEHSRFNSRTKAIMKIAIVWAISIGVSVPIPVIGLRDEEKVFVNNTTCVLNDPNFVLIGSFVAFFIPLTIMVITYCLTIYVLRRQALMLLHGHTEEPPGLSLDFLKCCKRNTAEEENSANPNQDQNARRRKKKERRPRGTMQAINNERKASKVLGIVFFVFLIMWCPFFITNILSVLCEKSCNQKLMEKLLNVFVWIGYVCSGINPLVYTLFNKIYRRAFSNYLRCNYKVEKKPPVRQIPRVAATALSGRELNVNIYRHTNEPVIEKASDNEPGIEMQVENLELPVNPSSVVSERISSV

[5] = target: 5-hydroxytryptamine receptor 7 (Rattus norvegicus, UniProt P32305); experiment: Displacement of [3H]-CT from rat 5-HT7 receptor expressed in HEK293 cells by competitive radioligand binding assay; assay type: cell-based
5-hydroxytryptamine receptor 7, sequence (P32305 whole entry): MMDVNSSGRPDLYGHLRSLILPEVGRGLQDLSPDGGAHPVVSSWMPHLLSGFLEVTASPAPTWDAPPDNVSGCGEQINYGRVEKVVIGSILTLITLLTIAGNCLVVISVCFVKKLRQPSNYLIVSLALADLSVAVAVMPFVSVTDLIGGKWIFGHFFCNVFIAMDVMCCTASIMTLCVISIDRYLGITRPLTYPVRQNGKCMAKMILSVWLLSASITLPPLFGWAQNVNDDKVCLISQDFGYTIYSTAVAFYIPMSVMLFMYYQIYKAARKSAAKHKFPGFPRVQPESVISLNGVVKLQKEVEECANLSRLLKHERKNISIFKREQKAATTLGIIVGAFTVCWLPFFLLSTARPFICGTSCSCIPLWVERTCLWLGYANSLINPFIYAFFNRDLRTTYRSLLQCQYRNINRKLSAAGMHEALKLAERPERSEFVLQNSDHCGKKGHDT

5-hydroxytryptamine receptor 2B, sequence (P41595 whole entry): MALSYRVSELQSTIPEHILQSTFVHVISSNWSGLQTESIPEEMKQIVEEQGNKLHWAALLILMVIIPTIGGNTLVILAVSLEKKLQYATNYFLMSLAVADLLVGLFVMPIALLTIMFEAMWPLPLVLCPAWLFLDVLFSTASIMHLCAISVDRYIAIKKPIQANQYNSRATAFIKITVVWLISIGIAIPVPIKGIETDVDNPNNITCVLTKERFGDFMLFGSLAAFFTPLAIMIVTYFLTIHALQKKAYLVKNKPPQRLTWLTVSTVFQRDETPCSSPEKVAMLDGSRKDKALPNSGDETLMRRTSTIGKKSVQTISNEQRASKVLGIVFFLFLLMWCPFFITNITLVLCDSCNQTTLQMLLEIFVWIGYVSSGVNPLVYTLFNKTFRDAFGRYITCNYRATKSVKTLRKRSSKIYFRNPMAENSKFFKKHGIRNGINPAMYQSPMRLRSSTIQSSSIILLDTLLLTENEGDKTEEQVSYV
5-hydroxytryptamine receptor 2A, sequence (P28223 whole entry): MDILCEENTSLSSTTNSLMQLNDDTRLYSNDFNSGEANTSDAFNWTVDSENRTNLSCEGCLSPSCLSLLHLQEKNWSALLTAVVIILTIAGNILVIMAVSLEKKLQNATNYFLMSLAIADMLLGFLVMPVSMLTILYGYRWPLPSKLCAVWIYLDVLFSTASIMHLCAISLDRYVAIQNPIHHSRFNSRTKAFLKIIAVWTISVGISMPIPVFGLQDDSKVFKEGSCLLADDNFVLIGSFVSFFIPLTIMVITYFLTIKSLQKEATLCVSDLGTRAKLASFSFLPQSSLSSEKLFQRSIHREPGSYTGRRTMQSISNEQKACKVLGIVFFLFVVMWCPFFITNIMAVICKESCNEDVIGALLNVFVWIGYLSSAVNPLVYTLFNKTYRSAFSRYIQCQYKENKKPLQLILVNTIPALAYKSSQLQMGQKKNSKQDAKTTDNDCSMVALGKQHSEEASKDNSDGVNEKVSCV

Ki [1]	Ki [2]	Ki [3]	Ki [4]	Ki [5]	Structure (SMILES)
1 nM	2 nM	4 nM	–	–	Cc1ccc(-c2c3c(nn2C(C)C)CCNCC3)cc1
19 nM	43 nM	–	85 nM	–	CC(C)(C)n1nc2c(c1-c1ccccc1)CCNCC2
60 nM	75 nM	–	1200 nM	140 nM	CCn1nc2c(c1-c1ccccc1)CCNCC2
1 nM	1 nM	20 nM	–	9 nM	CC(C)n1nc2c(c1-c1ccc(Cl)cc1)CCNCC2
